Like-named read-outs stand apart in the source and are kept apart here.
Experiments:
[1] = in vivo; cited from earlier work
[2] = system: adult subjects with chronic pain; experiment: Human study of the effects of oral quercetin (Q) and analgesics on sedation, concentration and pain; format: in vivo
Protocol: An empiric trial on the effects of oral quercetin (Q) on sedation, concentration, and pain was conducted. Inclusion criteria included ongoing pain of at least 4/10 on the Likert scale, poor tolerance of current analgesic regimen (complaints of sedation, dizziness, inability to focus), and willingness to complete daily diaries.
Approximately 16 adult subjects with chronic pain were screened and 9 subjects were admitted to the trial. Their pain disorders included peripheral neuropathy (2), facial pain (2), cervical radiculopathy (2), lumbar spine disease (3). Their pre-existing medications included short acting opioids (Vicodin TID, Tramadol 50 mg Q4-6), high dose, long acting opioids (OxyContin 240 mg, Methadone 400 mg), Gabapentin (900 mg and 2700 mg), Ativan, Flexeril, and Soma 350 mg. Seven of the subjects were using at least two analgesic medications. Two subjects were using no current medications because of prior histories of sedation and dizziness during opioid trials.
Q (Sigma) 500 mg per gel capsule was compounded and supplied to all subjects by overnight mail. Subjects were instructed to complete daily diaries for 7 days and continue their baseline medications and regular activities. On approximately the 7th day, they were asked to begin twice daily dosing of 2 Q (1000 mg) capsules (total daily dose of Q, 2000 mg). Diaries were completed for 7 days. Individual diaries included rating sleep interference, focus, pain now, and worst pain over the prior 24 hours. Subjects were instructed that concomitant pain medications should not be altered without speaking with the investigator. Subjects were advised that they would be contacted by telephone every day or every other day to assess progress in the trial and any side effects associated with the addition of Q. At the end of the trial, patients were interviewed. They were asked to rate their satisfaction with the study medication (−2−+2) and its ability to modulate the CNS effects of their pain medications.

[3] = system: mdr1a (P-gP) knockout (−/−) mouse; settings: cited from earlier work; for sensitivity to fetal cleft palate: same doses as knockout mice
[4] = after 7 days of co-administration of Q (2000 mg daily, oral) and analgesics, FIG. 16
[5] = scale of −2 to 2, patients on opiate or MSD and Q

Row | SMILES | serum half-life [1] | mean ratings for concentration improved [2, 4] | mean ratings for sleep improved [2, 4] | mean ratings for worst pain improved [2, 4] | mean ratings for pain now decreased ([2]; after 7 days of co-administration of Q (2000 mg daily, oral) and analgesics, all patients taking analgesic medications and Q, FIG. 16) | worst pain in the last 24 hrs (NPRS) ([2]; all patients after taking Q, 1 no pain, 10 worst, FIG. 7) | concentration rating (short term memory, focus, wakefulness) ([2]; all patients after taking Q, 1 perfect concentration, 10 worst, FIG. 6) | pain at the time the patients were called (pain now) ([2]; all patients after taking Q, FIG. 8) | sleep rating ([2]; all patients after taking Q, scale to 10 as worst, FIG. 5) | global assessment on the scale of −2 to 2 ([2]; all patients on opiate or MSD (membrane stabilizing drug) and modulator (Q), FIG. 15) | central withdrawal ([2]; opioid users taking Q) | patients reporting 2 in global assessment [2, 5] | patients reporting −2 in global assessment [2, 5] | pain on the scale from 1-10 (worst pain in last 24 hrs, pain at time of call) ([2]; two patients not on baseline meds, poor tolerance of systemic medications, FIG. 13 and 14) | sensitivity to fetal cleft palate ([3]; heterozygous (+/−) mice) | sensitivity to fetal cleft palate ([3]; homozygous (+/+) mice) | incidence of fetal cleft palate ([3]; mdr1a knockout mice)
1 | O=c1c(O)c(-c2ccc(O)c(O)c2)oc2cc(O)cc(O)c12 [Q, quercetin] | 19 to 25 h | over 60% | more than 25% | more than 25% | more than 70% | overall improvement | overall improvement | overall improvement | overall improvement | overall improvement | noted in 3 | three | none | brought the pain down | – | – | –
2 | CC[C@H](C)[C@H]1O[C@]2(C=C[C@@H]1C)C[C@@H]1C[C@@H](C/C=C(\C)[C@@H](O[C@H]3C[C@H](OC)[C@@H](O[C@H]4C[C@H](OC)[C@@H](O)[C@H](C)O4)[C@H](C)O3)[C@@H](C)/C=C/C=C3\CO[C@@H]4[C@H](O)C(C)=C[C@@H](C(=O)O1)[C@]34O)O2 [avermectin] | – | – | – | – | – | – | – | – | – | – | – | – | – | – | less sensitive | insensitive | 100%

Source: US20060111308A1, “Methods and compositions for therapeutic treatment” (priority 2004, published 2006)
